The values that follow come from patent US20030118673A1, “Smilagenin and anzurogenin-D for the treatment of alzheimer's disease” (priority 1998, published 2003).

For experiment [1], the system named is m2 receptors on CHO cells. The experiment is described as follows: Expression of m2 receptors on transfected CHO cells (tritiated QNB binding). Particulars: for Antagonism by tamoxifen of the increase in muscarinic receptor number: in the presence of tamoxifen; for Effect on receptor expression, given as % increase compared to control (negative values in brackets): DMSO control. It is filed as cell-based, Chinese hamster. As for the experimental part: 1. Chinese hamster ovary (CHO) cells transfected with the a DNA fragment coding for a muscarinic receptor. The cell line used for the majority of the experiments was a cell line expressing the m2 receptor.
1 CHO cell line experiments The effects of various compounds on the expression of m2 receptors on CHO cells transfected with DNA for the m2 receptor were investigated. Receptor. numbers were assayed using tritiated QNB binding and subtracting non-specific binding. Compounds were dissolved in DMSO and DMSO was used as a control. Compounds were tested at a range of final concentrations. Compounds were also tested in the presence and absence of tamoxifen to try to distinguish an estrogen receptor mediated mechanism. The results are summarized in the Table 2 below, where the compounds used in the invention appear in bold, and data on other sapogenins is given for comparative purposes: […]

The test system of experiment [2] is muscarinic receptors on cardiac muscle cells. Nature of the experiment: Muscarinic receptor expression on cultured neonatal cardiac muscle cells (tritiated QNB binding). The format is cell-based, Sprague Dawley rats. The source says:
3. Cultured cardiac muscle cells obtained from neonatal Sprague Dawley rats. The cardiac muscle cells express muscarinic receptors, typically m2. The level of these receptors falls on prolonged culture and the effects of compounds of interest in preventing the fall in receptor numbers was investigated.
3 Effects of compounds on cultured cardiac muscle cells. Cardiac muscle cells were isolated from the ventricular muscle of neonatal Sprague Dawley rats using standard techniques. Cells were cultured in vitro and muscarinic receptor numbers expressed on cell surfaces membrane fragments after homogenization of cells harvested at various time points were estimated using specific binding of tritiated QNB. […] The experiments were therefore designed to investigate the effects of the various compounds in inhibiting this decline in receptor numbers.

The next experiment has as its system estrogen receptor. Nature of the experiment: Estrogenic activity. The source says:
(§1) In identifying compounds that would have use in the treatment of SDAT and other diseases characterised by reductions in receptor numbers or synaptic transmission, the inventors have given consideration to the need to identify compounds that would have the desired effect but would be devoid of any estrogenic effects, as these would be unacceptable, particularly in male patients. A number of the compounds claimed to have activity in patent application DE 4303214A1 have marked estrogenic activity and are therefore unacceptable.

The target in a further experiment is T1, Progesterone receptor (Homo sapiens, UniProt P06401).
T1 sequence (P06401 1-933): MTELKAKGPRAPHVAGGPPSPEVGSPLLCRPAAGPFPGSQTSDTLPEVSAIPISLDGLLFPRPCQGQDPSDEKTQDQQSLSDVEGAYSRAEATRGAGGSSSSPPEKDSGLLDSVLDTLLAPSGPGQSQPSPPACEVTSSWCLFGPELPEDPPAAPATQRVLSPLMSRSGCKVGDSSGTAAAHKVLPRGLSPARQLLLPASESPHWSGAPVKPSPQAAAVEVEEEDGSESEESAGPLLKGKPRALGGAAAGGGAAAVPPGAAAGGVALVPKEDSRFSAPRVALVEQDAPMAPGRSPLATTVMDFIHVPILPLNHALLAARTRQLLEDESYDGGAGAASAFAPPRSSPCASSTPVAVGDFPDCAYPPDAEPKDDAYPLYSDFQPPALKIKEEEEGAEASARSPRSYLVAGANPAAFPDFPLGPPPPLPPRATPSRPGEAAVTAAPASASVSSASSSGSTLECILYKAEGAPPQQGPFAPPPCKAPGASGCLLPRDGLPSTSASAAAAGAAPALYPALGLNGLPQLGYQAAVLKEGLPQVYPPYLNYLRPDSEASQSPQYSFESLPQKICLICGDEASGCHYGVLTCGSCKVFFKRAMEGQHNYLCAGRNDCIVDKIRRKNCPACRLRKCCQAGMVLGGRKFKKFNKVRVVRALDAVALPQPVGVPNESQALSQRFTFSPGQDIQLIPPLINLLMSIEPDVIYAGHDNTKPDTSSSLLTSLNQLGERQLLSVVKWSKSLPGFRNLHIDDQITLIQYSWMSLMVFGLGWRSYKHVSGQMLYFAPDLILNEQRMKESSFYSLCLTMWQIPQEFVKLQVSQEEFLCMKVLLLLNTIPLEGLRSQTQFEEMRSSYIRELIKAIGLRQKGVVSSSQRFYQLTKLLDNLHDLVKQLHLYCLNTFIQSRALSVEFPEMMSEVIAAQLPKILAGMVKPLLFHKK
The experiment is described as follows: Activity at progesterone receptor.
Excerpt: as §1

Another experiment concerns the target T2, Glucocorticoid receptor (Homo sapiens, UniProt P04150).
T2 sequence (P04150 1-777): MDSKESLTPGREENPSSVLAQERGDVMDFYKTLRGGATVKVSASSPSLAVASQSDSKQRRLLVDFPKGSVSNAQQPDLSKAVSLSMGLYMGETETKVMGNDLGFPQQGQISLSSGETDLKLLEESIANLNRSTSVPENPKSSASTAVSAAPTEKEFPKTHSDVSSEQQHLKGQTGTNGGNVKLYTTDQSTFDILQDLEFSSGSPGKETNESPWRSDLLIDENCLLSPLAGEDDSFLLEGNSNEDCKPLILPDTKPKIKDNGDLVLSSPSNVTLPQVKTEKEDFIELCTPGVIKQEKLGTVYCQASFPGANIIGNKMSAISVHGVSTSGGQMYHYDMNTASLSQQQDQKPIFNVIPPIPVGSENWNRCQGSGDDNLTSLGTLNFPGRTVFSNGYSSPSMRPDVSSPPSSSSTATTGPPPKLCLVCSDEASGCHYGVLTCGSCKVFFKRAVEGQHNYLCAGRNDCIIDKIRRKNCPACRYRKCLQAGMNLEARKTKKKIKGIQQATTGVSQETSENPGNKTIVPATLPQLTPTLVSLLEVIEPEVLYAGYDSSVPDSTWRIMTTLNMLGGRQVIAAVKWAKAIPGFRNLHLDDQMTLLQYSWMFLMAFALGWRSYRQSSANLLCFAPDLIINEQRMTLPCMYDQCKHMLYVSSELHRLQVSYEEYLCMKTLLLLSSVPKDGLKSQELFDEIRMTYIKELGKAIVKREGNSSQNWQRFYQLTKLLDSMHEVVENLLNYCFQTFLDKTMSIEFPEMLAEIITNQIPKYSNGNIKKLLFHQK
Nature of the experiment: Activity at glucocorticoid receptor.
Excerpt: as §1

A further experiment addresses T3, Testosterone receptor (Homo sapiens, UniProt P10275).
T3 sequence (P10275 1-920): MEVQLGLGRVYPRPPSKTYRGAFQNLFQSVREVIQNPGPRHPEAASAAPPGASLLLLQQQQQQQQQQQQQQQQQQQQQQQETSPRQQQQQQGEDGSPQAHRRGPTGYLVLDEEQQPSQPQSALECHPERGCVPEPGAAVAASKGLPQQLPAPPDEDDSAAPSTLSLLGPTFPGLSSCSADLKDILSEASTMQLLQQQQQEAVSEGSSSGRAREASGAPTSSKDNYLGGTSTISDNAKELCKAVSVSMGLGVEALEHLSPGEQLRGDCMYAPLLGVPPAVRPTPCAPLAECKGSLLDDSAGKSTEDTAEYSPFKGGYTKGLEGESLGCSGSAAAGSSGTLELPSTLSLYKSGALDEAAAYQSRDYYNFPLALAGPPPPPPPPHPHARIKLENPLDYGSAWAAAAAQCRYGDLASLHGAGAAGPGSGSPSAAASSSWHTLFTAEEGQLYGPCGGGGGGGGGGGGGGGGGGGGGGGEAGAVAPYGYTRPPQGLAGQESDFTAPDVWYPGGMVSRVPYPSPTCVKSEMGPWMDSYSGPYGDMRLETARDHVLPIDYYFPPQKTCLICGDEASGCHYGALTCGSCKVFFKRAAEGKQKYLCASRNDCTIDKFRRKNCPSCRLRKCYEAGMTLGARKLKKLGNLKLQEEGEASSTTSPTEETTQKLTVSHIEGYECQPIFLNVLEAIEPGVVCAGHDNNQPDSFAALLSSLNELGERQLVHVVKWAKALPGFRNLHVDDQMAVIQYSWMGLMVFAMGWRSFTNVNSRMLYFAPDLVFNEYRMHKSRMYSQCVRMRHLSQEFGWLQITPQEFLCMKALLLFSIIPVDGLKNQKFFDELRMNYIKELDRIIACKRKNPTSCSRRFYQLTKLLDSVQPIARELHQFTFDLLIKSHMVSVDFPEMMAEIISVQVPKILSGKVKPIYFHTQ
Nature of the experiment: Activity at testosterone receptor.
Excerpt: as §1

Setting [3] is: molar concentration of compound 10^−5.

Chain of m2 receptors on CHO cells (P08172 whole entry, the tested form may be a part): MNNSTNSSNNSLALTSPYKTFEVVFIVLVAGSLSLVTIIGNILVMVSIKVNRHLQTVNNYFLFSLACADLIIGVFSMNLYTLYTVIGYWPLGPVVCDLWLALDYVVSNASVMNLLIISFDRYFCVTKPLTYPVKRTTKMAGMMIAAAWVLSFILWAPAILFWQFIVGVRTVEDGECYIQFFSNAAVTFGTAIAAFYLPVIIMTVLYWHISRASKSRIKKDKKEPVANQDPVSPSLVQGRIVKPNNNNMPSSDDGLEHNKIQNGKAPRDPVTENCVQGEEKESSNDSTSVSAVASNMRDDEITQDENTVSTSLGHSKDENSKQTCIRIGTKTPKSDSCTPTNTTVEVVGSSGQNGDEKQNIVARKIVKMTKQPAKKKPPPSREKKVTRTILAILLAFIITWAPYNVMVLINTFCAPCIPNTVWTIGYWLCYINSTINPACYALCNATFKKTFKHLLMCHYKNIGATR

In the case of `C[C@@H]1CC[C@@]2(OC1)O[C@H]1C[C@H]3[C@@H]4C[C@@H](O)[C@@]5(O)C[C@@H](O)CC[C@]5(C)[C@H]4CC[C@]3(C)[C@H]1[C@@H]2C` [Anzurogenin D, Anzurogenin-D], the “Antagonism by tamoxifen of the increase in muscarinic receptor number” value in experiment [1] is “not antagonized by tamoxifen”. The “Effect on receptor expression, given as % increase compared to control (negative values in brackets)” value in experiment [1] (setting [3]) is listed as 22%. Moreover, the “Concentration of compound causing a significant increase in number of receptors expressed on neonatal cardiac muscle after 10 days in vitro culture” value in experiment [2] is given as 10^−6 M. Besides, the Estrogenic activity entry in the experiment on estrogen receptor is reported as “do not display estrogenic activity”. Also, the “Activity at progesterone receptor” value on Progesterone receptor is “neither compound was found to have any activity”. Further, on Glucocorticoid receptor, the “Activity at glucocorticoid receptor” value is listed as “neither compound was found to have any activity”. The “Activity at testosterone receptor” value at Testosterone receptor is “neither compound was found to have any activity”.

Consider `C[C@H]1CC[C@@]2(OC1)O[C@H]1C[C@H]3[C@@H]4CC[C@@H]5C[C@@H](O)CC[C@]5(C)[C@H]4CC[C@]3(C)[C@H]1[C@@H]2C` [Sarsasapogenin, reference compound], for which the “Effect on receptor expression, given as % increase compared to control (negative values in brackets)” value in experiment [1] (setting [3]) worked out at 34%. Also, the “Concentration of compound causing a significant increase in number of receptors expressed on neonatal cardiac muscle after 10 days in vitro culture” value in experiment [2] is 10^−5 M.

On to Astragaloside [reference compound], for which the “Concentration of compound causing a significant increase in number of receptors expressed on neonatal cardiac muscle after 10 days in vitro culture” value in experiment [2] is on record as 10^−5 M.

In the case of Smilagenin, the “Antagonism by tamoxifen of the increase in muscarinic receptor number” value in experiment [1] is reported as “not antagonized by tamoxifen”. Moreover, the “Effect on receptor expression, given as % increase compared to control (negative values in brackets)” value is reported as 57% in experiment [1] (setting [3]) and 18% in experiment [1] (molar concentration of compound 10^−6). The “Concentration of compound causing a significant increase in number of receptors expressed on neonatal cardiac muscle after 10 days in vitro culture” value in experiment [2] is on record as 10^−6 M. In the experiment on estrogen receptor, the Estrogenic activity entry is “do not display estrogenic activity”. Moreover, on Progesterone receptor, the “Activity at progesterone receptor” value is given as “neither compound was found to have any activity”. Moreover, the “Activity at glucocorticoid receptor” value on Glucocorticoid receptor is “neither compound was found to have any activity”. Further, the “Activity at testosterone receptor” value at Testosterone receptor is “neither compound was found to have any activity”.
